How the values were obtained:
GK rat [1] = experiment: Total cholesterol concentration in blood plasma of GK rats; format: in vivo; details: fasted 17 hours, 4, 14 and 23 weeks after start of administration, glibenclamide 1 mg/kg, nateglinide 50 mg/kg twice a day, FIG. 2
Procedure: In the same manners as those in the Example 1, the groups formation for the test animals, the feeding of the animals and the administration of medicinal compounds (drug) to be tested to the animals were performed. At one week before the start of the drug administration (the age of 13 weeks) for the animals, and at four weeks (the age of 18 weeks), fourteen weeks (the age of 28 weeks) and twenty-three weeks (the age of 37 weeks) each after the start of the drug administration, the blood samples were taken from the jugglar vein after fasting (abstinence from food) for 17 hours. The total cholesterol concentration in the blood plasma was measured by means of the cholesterol oxidase test method using the Fuji […] analyzer.

GK rat [2] = experiment: Motor nerve conduction velocity (tail nerve) in GK rats; format: in vivo; details: 23 weeks after start of oral administration twice a day, glibenclamide 1 mg/kg, nateglinide 50 mg/kg, control group 48.2±1.3, normal control 55.2±1.8
Procedure: An animal test was conducted on a set of the following four groups, and nateglinide and glibenclamide were each suspended into 0.5% methyl cellulose (MC) to give a solution for administration.
GKrats( :male) as a spontaneous diabetic model and normal Wistar rats ( : male) were introduced at the age of 6 weeks.
From the age of 7 weeks, they were kept under a light control (dark term: 7:00 a.m. to 7:00 p.m.; light term: 7:00 p.m. to next morning 7:00) in a feeding limit condition, in which a feed was given twice a day, each only for 1 hour at an interval of 6 hours (9:00 a.m. to 10:00 a.m., and 3:00 p.m. to 4:00 p.m.).
Everyday from the age of 14 weeks, 0.5% MC, glibenclamide (1 mg/kg) or nateglinide (50 mg/kg) was forcibly administered orally just before each feeding twice a day (at 9:00 a.m. and 3:00 p.m.) at an interval of 6 hours.
Twenty-three weeks after the start of the drug administration (the age of 37 weeks), in order to examine an influence on diabetic complications, the motor nerve conduction velocity was measured according to the method described in Cameronetal., Diabetologia, Vol.39, p.1047-1054 (1996), using a tail nerve.

GK rats = experiment: Triglyceride concentration in blood plasma after fat emulsion loading, GK rats; format: in vivo, rat; details: fat emulsion (Intralipos, 2 g/kg) load, crossover, nateglinide 50 mg/kg or voglibose 0.2 mg/kg orally just before loading
Procedure: (§1) Using the postprandial hyper lipemiamodel rats (10rats) thus obtained, in a crossover method, an influence of the drug administered on a triglyceride concentration in blood plasma (a postprandial hyperlipemia- suppressing effect) was examined. That is, nateglinide (50 mg/kg) or voglibose (0.2 mg/kg), an alpha-glucosidase inhibitor as a control was administered orally, just before loading with the fat emulsion, and the blood samples were taken from a tail vein with time by four hours after the administration.
(§2) A triglyceride concentration in the blood plasma was measured by means of the Fuji Drichem analyzer.

Zucker Fatty rat = experiment: Triglyceride concentration in blood plasma after fat emulsion loading, Zucker Fatty rat; format: in vivo; details: for area under the curve (AUC) of the triglyceride until four hours after the load: Zucker Fatty rat, fat emulsion load, nateglinide 50 mg/kg or voglibose 0.2 mg/kg orally
Procedure: as §1, §2
The same examinations were also conducted with the use of a Zucker Fatty rat which is another hyperlipidemic animal.
As a result of fractional analysis of lipoprotein by means of anagarose gel electrophoresis, amarked increase of fractions in the origin area and pre β subfractions, which are thought to contain chylomicron, VLDL (very low density lipoprotein) and so on which are said to correlate with an angiopathy and an arteriosclerosis was observed.

[3] = test system: Na^+/K^+-ATPase activity in the sciatic nerve; experiment: Na+/K+-ATPase activity in sciatic nerve of GK rats; format: in vivo; details: GK rat, 23 weeks after start of oral administration, nateglinide 50 mg/kg twice a day; control group 87.6±9.8, normal control 110.5±7.7
Procedure: In the same manners as those in the Example 1, the group formation for the test animals, the feeding of the animals and the administration of medicinal compounds (drug) to be tested to the animals were performed. At twenty-three weeks after the start of the drug administration (the age of 37 weeks), the rats were killed and the sciatic nerves were excised. A Na^+/K^+-ATPase activity in the sciatic nerve was measured based on the method described in Green et al., Journal of Clinical Investigation, vol.72, 1058-1063 (1983).

[4] = test system: vWF concentration in the serum; experiment: vWF concentration in serum of GK rats (ELISA); format: in vivo; details: GK rat, 23 weeks after start of administration, nateglinide 50 mg/kg twice a day; relative to normal control group 100; control group 184.8±24.3
Procedure: In the same manners as those in the Example 1, the feeding of the animals for the test animals and the administration of medicinal compounds (drug) to be tested to the animals were performed. At twenty-three (23) weeks after the start of the drug administration (the age of 37 weeks), the blood samples were taken from the postcaval vein. The vWF concentration in the serum was measured by means of the ELISA method using anti-human vWF antibody (made by DAKO Co.).

## COc1ccc(Cl)cc1C(=O)NCCc1ccc(S(=O)(=O)NC(=O)NC2CCCCC2)cc1 [glibenclamide]
GK rat [1]
  total cholesterol concentration in the blood plasma: change in the cholesterol value was not observed
GK rat [2]
  motor nerve conduction velocity: 52.3±0.9 m/sec

## OCC(CO)N[C@H]1C[C@](O)(CO)[C@@H](O)[C@H](O)[C@H]1O [voglibose]
GK rats
  increase of area under the curve (AUC) of the triglyceride during four hours after the loading: 164 ± 17 mg·h/dL
Zucker Fatty rat
  area under the curve (AUC) of the triglyceride until four hours after the load: 501 ± 112 mg·h/dL

## CC(C)[C@H]1CC[C@H](C(=O)N[C@H](Cc2ccccc2)C(=O)O)CC1 [nateglinide, (−)-N-(trans-4-isopropylcyclohexane-carbonyl)-D-phenylalanine]
GK rats
  increase of area under the curve (AUC) of the triglyceride during four hours after the loading: 81 ± 22 mg·h/dL
[3]
  Na^+/K^+-ATPase activity in the sciatic nerve: 99.5±7.6 μmol ADP/g/hr
GK rat [1]
  total cholesterol concentration in the blood plasma: marked decrease
Zucker Fatty rat
  area under the curve (AUC) of the triglyceride until four hours after the load: 15 ± 69 mg·h/dL
Zucker Fatty rat; after fat emulsion load, fractions thought to contain chylomicron, VLDL
  increase of lipoprotein fractions in the origin area and pre β subfractions (agarose gel electrophoresis): suppressed
GK rat [2]
  motor nerve conduction velocity: 55.9±1.3 m/sec
[4]
  vWF concentration in the serum: 124.5±21.5%

Reference: patent US20030073729A1, “Medicaments for diabetic complication and neuropathy, and uses thereof” (AJINOMOTO CO. INC, priority 2000, published 2003)
